Laboratory results reported in patent EP0976754B1, “REMEDIES/PREVENTIVES FOR RESPIRATORY DISEASES” (POLA CHEMICAL INDUSTRIES, INC., priority 1997, dated 1998).

What was measured:
[1] = system: airway-constriction reaction; experiment: Inhibitory effect on airway-constriction reaction (in vivo), modified Konzet-Lössler method, histamine-elicited; settings: Cavia porcellus, iv; test compound 100 mg/2 ml/kg in 1% CMC through esophageal cannula; histamine 20 µg/kg i.v. at 15, 30, 60 and 120 minutes; anesthetized guinea pigs; read-out: Inhibitory rate (%) Histamine
Experimental: (§1) A group of 6 male Hartley albino guinea pigs (250 to 350 g) was anesthetized with pentobarbital, and the tracheae, esophagi, carotid arteries and jugular veins thereof were cannulated. The experiment was performed by connecting the tracheotomic cannula to a respirator incorporated into a circuit of a bronchospasm transducer (modified Konzet-Lössler method), arresting the spontaneous respiration of each guinea pig with choline chloride succinate (1 mg/kg i.v.) and then practicing artificial ventilation, and an airway-constriction reaction was determined by using an overflow rate of ventilation as an index. Acetylcholine (20 µg/kg) or histamine (20 µg/kg) was intravenously administered upon elapsed time of 15, 30, 60 and 120 minutes after a test compound (100 mg/2 ml/kg) suspended in 1% CMC was administered through the esophageal cannula, thereby observing the airway-constriction reaction elicited. For the sake of comparison, theophylline (100 mg/2 ml/kg) commonly and widely used in the treatment for asthma was used. The inhibitory effect on the airway-constriction reaction was expressed by a value calculated as an inhibitory rate (%). It turns out that all the compounds according to the present invention have an excellent inhibitory effect on airway constriction.

[2] = system: airway-constriction reaction; experiment: Inhibitory effect on airway-constriction reaction (in vivo), modified Konzet-Lössler method, acetylcholine-elicited; settings: Cavia porcellus, iv; test compound 100 mg/2 ml/kg in 1% CMC through esophageal cannula; acetylcholine 20 µg/kg i.v. at 15, 30, 60 and 120 minutes; anesthetized guinea pigs; read-out: Inhibitory rate (%) Acetylcholine
Experimental: as §1

trachea [3] = experiment: Tracheodilative effect (in vitro), Magnus method, trachea strips contracted with histamine; settings: Cavia porcellus; relaxation of guinea pig trachea strips contracted with 3 x 10^-6 M histamine; maximum relaxation by 10^-4 M isoproterenol = 100%; read-out: pIC50 value Histamine (converted)
Experimental: (§2) With respect to Compound 2, Compound 5, Compound 6, Compound 7 and Compound 16, the tracheodilative effect useful in treatment and/or prevention of respiratory diseases such as asthma was investigated by the Magnus method. A male Hartley albino guinea pig (250 to 300 g) was blow on the head and exsanguinated to death to enucleate its trachea. Strip specimens were prepared from the trachea. Each of the specimens was suspended in a Magnus tube filled with a Krebs-Henseleit solution kept at 37°C with supply of a mixed gas (95% O2, 5% CO2). A static tension of 1.0 g was loaded to record an isometric tension. Each of test compounds was cumulatively administered to the specimens separately contracted with 1 x 10^-6 M carbachol and 3 x 10^-6 M histamine to investigate its relaxing effect. After the cumulative administration, 10^-4 M isoproterenol was administered to identify the maximum relaxing effect on the trachea specimen. The maximum relaxation was regarded as 100%, and a negative logarithmic value of the concentration of the test compound, at which the specimen was relaxed by 50%, was calculated out, thereby regarding it as a pIC50 value. […]

trachea [4] = experiment: Tracheodilative effect (in vitro), Magnus method, enucleated trachea contracted with LTD4; settings: Cavia porcellus; relaxation of enucleated guinea pig trachea contracted with LTD4 3 x 10^-8 M; read-out: pIC50 value LTD4 (converted)
Experimental: as §2
The pIC50 values of the compounds according to the present invention on contraction by LTD4 (concentration: 3 x 10^-8 M) were determined by using the enucleated trachea in accordance with the Magnus method in the same manner as in Test Example 1. It turns out that the compounds according to the present invention are effective on the contraction by this agent.

trachea [5] = experiment: Tracheodilative effect (in vitro), Magnus method, trachea strips contracted with carbachol; settings: Cavia porcellus; relaxation of guinea pig trachea strips contracted with 1 x 10^-6 M carbachol; maximum relaxation by 10^-4 M isoproterenol = 100%; read-out: pIC50 value Carbachol (converted)
Experimental: as §2

Row | IC50 (trachea [3]) [µM] | IC50 (trachea [4]) [µM] | IC50 (trachea [5]) [µM] | SMILES | inhibition in vivo at 100 mg/kg [1] [%] | inhibition in vivo at 100 mg/kg [2] [%]
1 | – | – | – | CC(C)(C)N1CCc2cnc3c(C#N)cnn3c21 [Compound 14, 8-tert-butyl-3-cyano-6,7-dihydro-8H-pyrrolo[3,2-e]pyrazolo[1,5-a]pyrimidine] | 8.7 | 40.4
2 | 12.6 | 4.07 | 18.6 | N#Cc1cnn2c3c(c(N)nc12)CCN3C1CCCC1 [Compound 5, 5-amino-3-cyano-8-cyclopentyl-6,7-dihydro-8H-pyrrolo[3,2-e]pyrazolo[1,5-a]pyrimidine] | 52.9 | 32.1
3 | 16.2 | – | 23.4 | CC(C)(C)N1CCc2c(N)nc3c(C#N)cnn3c21 [Compound 16, 5-amino-8-tert-butyl-3-cyano-6,7-dihydro-8H-pyrrolo[3,2-e]pyrazolo[1,5-a]pyrimidine] | – | –
4 | – | – | – | CC(C)(C)N1CCc2c(Cl)nc3c(C#N)cnn3c21 [Compound 15, 8-tert-butyl-5-chloro-3-cyano-6,7-dihydro-8H-pyrrolo[3,2-e]pyrazolo[1,5-a]pyrimidine] | 25.8 | 36.5
5 | 16.2 | 11.2 | 22.4 | N#Cc1cnn2c3c(c(N)nc12)CCN3C1CCCCC1 [Compound 6, 5-amino-3-cyano-8-cyclohexyl-6,7-dihydro-8H-pyrrolo[3,2-e]pyrazolo[1,5-a]pyrimidine] | – | –
6 | 6.31 | – | 19.1 | CCC(C)N1CCc2cnc3c(C#N)cnn3c21 (stereo not shown) [Compound 2, 8-sec-butyl-3-cyano-6,7-dihydro-8H-pyrrolo[3,2-e]pyrazolo[1,5-a]pyrimidine] | 52.2 | 50
7 | 15.5 | 3.72 | 18.2 | CCC(C)N1CCc2c(N)nc3c(C#N)cnn3c21 (stereo not shown) [Compound 7, 5-amino-8-sec-butyl-3-cyano-6,7-dihydro-8H-pyrrolo[3,2-e]pyrazolo[1,5-a]pyrimidine] | 49.8 | 36.5
8 | – | – | – | N#Cc1cnn2c3c(cnc12)CCN3C1CCCC1 [Compound 1, 3-cyano-8-cyclopentyl-6,7-dihydro-8H-pyrrolo[3,2-e]pyrazolo[1,5-a]pyrimidine] | 22.2 | 33.4
9 | 977 | 112 | 2950 | Cn1c(=O)c2[nH]cnc2n(C)c1=O [Theophylline, theophylline, reference compound] | 37.7 | 39.5
10 | – | – | – | N#Cc1cnn2c3c(c(Cl)nc12)CCN3C1CCCC1 [Compound 3, 5-chloro-3-cyano-8-cyclopentyl-6,7-dihydro-8H-pyrrolo[3,2-e]pyrazolo[1,5-a]pyrimidine] | 7.7 | 22.8
11 | – | – | – | CCC(C)N1CCc2c(Cl)nc3c(C#N)cnn3c21 (stereo not shown) [Compound 4, 8-sec-butyl-5-chloro-3-cyano-6,7-dihydro-8H-pyrrolo[3,2-e]pyrazolo[1,5-a]pyrimidine] | 24.7 | 33.2
